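Growth conditions: 96-well plates. Treatment: test compound, 48 hours, 5 concentrations. Analysis: linear interpolation between bracketing concentrations; unreached endpoints set to highest concentration. The concentration for full growth arrest is given as TGI.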
Key:
Assay in all cases: DTP human tumour cell line panel, 48 h
SF-268 CNS = system: SF-268 CNS
ACHN renal = system: ACHN renal
HCT-116 colon = system: HCT-116 colon
786-0 renal = system: 786-0 renal
SNB-75 CNS = system: SNB-75 CNS
SK-MEL-2 melanoma = system: SK-MEL-2 melanoma
K-562 leukemia = system: K-562 leukemia
SK-MEL-5 melanoma = system: SK-MEL-5 melanoma
IGROV1 ovarian = system: IGROV1 ovarian
MCF7 breast = system: MCF7 breast
HCC-2998 colon = system: HCC-2998 colon
MOLT-4 leukemia = system: MOLT-4 leukemia
KM12 colon = system: KM12 colon
HS 578T breast = system: HS 578T breast
NCI-H226 lung = system: NCI-H226 lung
BT-549 breast = system: BT-549 breast
CAKI-1 renal = system: CAKI-1 renal
HL-60(TB) leukemia = system: HL-60(TB) leukemia
OVCAR-5 ovarian = system: OVCAR-5 ovarian
NCI-H23 lung = system: NCI-H23 lung
OVCAR-3 ovarian = system: OVCAR-3 ovarian
RXF 393 renal = system: RXF 393 renal
SNB-19 CNS = system: SNB-19 CNS
COLO 205 colon = system: COLO 205 colon
SK-MEL-28 melanoma = system: SK-MEL-28 melanoma
HOP-62 NSCLC = system: HOP-62 NSCLC
U251 CNS = system: U251 CNS
MDA-MB-231 breast = system: MDA-MB-231 breast
LOX IMVI melanoma = system: LOX IMVI melanoma
DU-145 prostate = system: DU-145 prostate
NCI-H522 lung = system: NCI-H522 lung
PC-3 prostate = system: PC-3 prostate
OVCAR-8 ovarian = system: OVCAR-8 ovarian
RPMI-8226 leukemia = system: RPMI-8226 leukemia
A498 renal = system: A498 renal
CCRF-CEM leukemia = system: CCRF-CEM leukemia
NCI/ADR-RES ovarian = system: NCI/ADR-RES ovarian
TK-10 renal = system: TK-10 renal
HOP-92 NSCLC = system: HOP-92 NSCLC
UACC-62 melanoma = system: UACC-62 melanoma
NCI-H460 lung = system: NCI-H460 lung
MDA-N = system: MDA-N
UO-31 renal = system: UO-31 renal
HT29 colon = system: HT29 colon
EKVX NSCLC = system: EKVX NSCLC
T-47D breast = system: T-47D breast
UACC-257 melanoma = system: UACC-257 melanoma
SK-OV-3 ovarian = system: SK-OV-3 ovarian
MDA-MB-435 = system: MDA-MB-435
OVCAR-4 ovarian = system: OVCAR-4 ovarian
SW-620 colon = system: SW-620 colon
M14 melanoma = system: M14 melanoma
MALME-3M melanoma = system: MALME-3M melanoma
SF-295 CNS = system: SF-295 CNS
SR leukemia = system: SR leukemia
SN12C renal = system: SN12C renal
A549 NSCLC = system: A549 NSCLC
HCT-15 colon = system: HCT-15 colon

SMILES: CCOC(=O)/C=C/C(Br)=C(Br)/C=C/C(=O)OCC
- TGI (SF-268 CNS): 40.4 µM
- TGI (ACHN renal): 25.8 µM
- TGI (HCT-116 colon): 17 µM
- TGI (786-0 renal): 8.61 µM
- TGI (SNB-75 CNS): 26 µM
- TGI (SK-MEL-2 melanoma): 49.3 µM
- TGI (K-562 leukemia): 10.9 µM
- TGI (SK-MEL-5 melanoma): 27.7 µM
- TGI (IGROV1 ovarian): 30.1 µM
- TGI (MCF7 breast): 26.2 µM
- TGI (HCC-2998 colon): 49 µM
- TGI (MOLT-4 leukemia): 5.93 µM
- TGI (KM12 colon): 32.6 µM
- TGI (HS 578T breast): > 76.2 µM
- TGI (NCI-H226 lung): 56.1 µM
- TGI (BT-549 breast): 12.4 µM
- TGI (CAKI-1 renal): 13.9 µM
- TGI (HL-60(TB) leukemia): 26.1 µM
- TGI (OVCAR-5 ovarian): 34.9 µM
- TGI (NCI-H23 lung): 30 µM
- TGI (OVCAR-3 ovarian): 24.9 µM
- TGI (RXF 393 renal): 24.9 µM
- TGI (SNB-19 CNS): 33.6 µM
- TGI (COLO 205 colon): 30.8 µM
- TGI (SK-MEL-28 melanoma): 33.4 µM
- TGI (HOP-62 NSCLC): 36.7 µM
- TGI (U251 CNS): 27.9 µM
- TGI (MDA-MB-231 breast): 31.1 µM
- TGI (LOX IMVI melanoma): 7.44 µM
- TGI (DU-145 prostate): 29.1 µM
- TGI (NCI-H522 lung): 7.14 µM
- TGI (PC-3 prostate): 28 µM
- TGI (OVCAR-8 ovarian): 21.3 µM
- TGI (RPMI-8226 leukemia): 15.6 µM
- TGI (A498 renal): 74.3 µM
- TGI (CCRF-CEM leukemia): 2.84 µM
- TGI (NCI/ADR-RES ovarian): 64.8 µM
- TGI (TK-10 renal): 28.1 µM
- TGI (HOP-92 NSCLC): 37.1 µM
- TGI (UACC-62 melanoma): 30.9 µM
- TGI (NCI-H460 lung): > 100 µM
- TGI (MDA-N): 27.3 µM
- TGI (UO-31 renal): 23.8 µM
- TGI (HT29 colon): 29.1 µM
- TGI (EKVX NSCLC): 36.2 µM
- TGI (T-47D breast): > 64.5 µM
- TGI (UACC-257 melanoma): 43.5 µM
- TGI (SK-OV-3 ovarian): 47.8 µM
- TGI (MDA-MB-435): 18.1 µM
- TGI (OVCAR-4 ovarian): 34.8 µM
- TGI (SW-620 colon): 5.31 µM
- TGI (M14 melanoma): 30.3 µM
- TGI (MALME-3M melanoma): 17.5 µM
- TGI (SF-295 CNS): 28.8 µM
- TGI (SR leukemia): 34.4 µM
- TGI (SN12C renal): 25.9 µM
- TGI (A549 NSCLC): 56 µM
- TGI (HCT-15 colon): 10.7 µM
